These results are taken from patent US11926613B2, “Kinase inhibitors for the treatment of central and peripheral nervous system disorders” (UNIVERSITY OF MIAMI, priority 2017, dated 2024).

Read-outs that look alike come from different tables or passages of the source.

The term EC50 denotes the concentration at which the effect is half-maximal. High values mean a need for much substance, low ones an effect from little substance.

One assay has as its system Primary Neurons. The assay is described as follows: HCS neurite outgrowth assay (High Content Screening with Primary Neurons). It is filed as cell-based.
Assay [1] relates to neurons from hippocampi of E18 rat embryos. The assay is described as follows: Neurite growth length (% NTL) in cultured E18 rat hippocampal neurons, 9-point dose response, 48 hours. The following applies: for activity at 0.078 µM / activity at 0.156 µM / activity at 0.312 µM / activity at 0.625 µM / activity at 1.25 µM / activity at 2.5 µM / activity at 5 µM / activity at 10 µM / activity at 20 µM: Rattus norvegicus, Neuron, 48 h. It is filed as cell-based. On the procedure: PRE-COATING CULTURE PLATES: On the day before the experiment, 96-well plates were pre-coated by plating 50 μl of Poly-D-lysine solution (PDL, 0.5 mg/mL) in each well. The next morning, the plates were washed four or five times with HBSS or PBS (150 μl/rinse), then left in buffer until cell plating
PREPARING THE CELLS: A timed pregnant rat carrying E18 embryos was euthanized using an IACUC approved method. In a laminar flow hood, the embryos were removed and placed in a petri dish containing Hank's Balanced Salt Solution (HBSS) with 20 mM HEPES, pH 7.3. Pup brains were dissected (see Meberg et al., 2003) and hippocampi were collected in 15 mL a conical tube containing Hibernate E with SM1 (2% v/v).
Dissociation media was prepared by combining 4.5 mL of Hibernate E (without SM1) with 0.5 mL of trypsin and 100 μl of DNAse solution. The medium over the hippocampi was carefully removed and replaced with dissociation solution, then incubated at 37° C. for 15-20 minutes, occasionally swirling the tube.
Using flame polished cotton plugged Pasteur pipettes, the dissociation media was removed, and then 5 mL of Hibernate E containing SM1 were added. The tube was swirled to thoroughly wash the tissue. The tissue was allowed to settle to the bottom of the tube, and the rinse solution was carefully removed. This step was repeated 5 times to dilute out trypsin and DNAse and remove any debris from lysed cells.
The final rinse media was removed from the tube and 1 pipette-full (1-2 mL) of Hibernate E with SM1 was added. Using the flame-polished Pasteur pipette (pre-wetted with rinse media), the tube was triturated until all cells had dissociated and no visible chunks of tissue remained. Fewer than ten triturations were typically performed. The volume was adjusted to 8-12 mL using Hibernate E containing SM1, the well was mixed and cell concentration was determined.
PLATING: The cells were diluted in culture media (NbActiv4 Cell-culture media) to a final concentration of 10,000 cells/mL. The HBSS was aspirated from PDL coated plates, and 150 μL of cell solution was loaded in the middle 48 wells at 1500 cells per well. Water was loaded in the outer wells to decrease evaporation from edge wells. Cells were allowed to adhere for 2 hours in tissue culture incubator prior to treatment.
TREATMENT: Compounds were diluted to various concentrations to provide 9 dose response concentrations of 20 μM, 10 μM, 5, μM, 2.5 μM, 1.25 μM, 0.625 μM, 0.3125 μM, 0.15625 μM, and 0.078125 μM. The plates were cultured for 48 hours, exposed to the compound at the various dose response concentrations.
FIXING THE CULTURES: The culture medium was removed from the plates and immediately replaced with 100-200 μl of warm (37° C.) 4% paraformaldehyde (PFA) solution in phosphate-buffered saline (PBS). The cells were fixed for 15-20 minutes at room temperature, and then rinsed with PBS (200 μl/well×3).
STAINING AND IMAGING: The PBS was removed and replaced with 100 μl of blocking/permeabilization buffer (PBS, 0.2% fish gelatin, 0.03% Triton X-100, 0.02% NaN3), then incubated overnight at 4° C. To this was added 100 μl of primary antibody solution (mouse anti-Beta III tubulin in blocking buffer) and incubate overnight at 4° C. The wells were rinsed with PBS (200 μl×3), which was then removed and replaced with 100 μl of secondary antibody solution (Goat anti-mouse Alexa 488, 10 μg/ml Hoechst 33342, 0.2% fish gelatin, 0.02% azide, in PBS). The plate was shaken gently on a rotating shaker for 2 hours, then rinsed with PBS (200 μl×5).
The plate was imaged using a Cellomics ArrayScan VTI in 2 different channels for nuclear staining (Hoechst) and cell body/neurite staining (βIII-tubulin). Typically, nine fields per well were imaged with a 5× objective and automatically traced by the Neuronal Profiling Bioapplication. To get reproducible results, at least 200-300 valid neurons were measured per condition. […]

On to “2-(4-(((3R,4R)-4-(isonicotinamido)pyrrolidin-3- yl)carbamoyl)benzoyl)-4-methoxyphenyl acetate [Example A89]”, for which the EC50 with Primary Neurons is 8.08 µM.

In turn, “2-(4-(((3R,4R)-4-(isonicotinamido)pyrrolidin-3- yl)carbamoyl)benzoyl)-4-methoxyphenyl benzoate [Example A87]” returned an EC50 in the assay with Primary Neurons of 13.1 µM.

As to `O=C(N[C@@H]1CNC[C@H]1NC(=O)c1ccncc1)c1ccncc1` (stereo in doubt) [Example A10, N-[(3R,4R)-4-(pyridine-4-amido)pyrrolidin-3-yl]pyridine-4-carboxamide], the activity at 0.078 µM in assay [1] (78 nM) worked out at 91.7%. In assay [1] (156 nM), the activity at 0.156 µM was determined as 91.2%. Moreover, the activity at 0.312 µM in assay [1] (312 nM) is 87.5%. The activity at 0.625 µM in assay [1] (625 nM) amounted to 88.2%. Further, the activity at 1.25 µM in assay [1] (1.25 μM) is 83.7%. For the same molecule, the activity at 2.5 µM in assay [1] (2.5 μM) stood at 82.9%. In assay [1] (5 μM), the activity at 5 µM came to 85.9%. Moreover, the activity at 10 µM in assay [1] (10 μM) was determined as 86%. The activity at 20 µM in assay [1] (20 μM) stood at 92.6%. In the assay on Primary Neurons (Primary neuron), this molecule showed an EC50 of 0.93 µM.

On to `O=C(N[C@@H]1CNC[C@H]1NC(=O)c1ccc(C(=O)c2ccccc2)cc1)c1ccncc1` (stereo in doubt) [Example A13, N-[(3R,4R)-4-(4-benzoylbenzamido)pyrrolidin-3-yl]pyridine-4-carboxamide], for which the activity at 0.078 µM in assay [1] (78 nM) was found to be 99.5%. Further, the activity at 0.156 µM in assay [1] (156 nM) came to 101%. Moreover, in assay [1] (312 nM), the activity at 0.312 µM was 97.7%. In addition, in assay [1] (625 nM), the activity at 0.625 µM came out at 103%. For the same molecule, the activity at 1.25 µM in assay [1] (1.25 μM) amounted to 106%. Also, in assay [1] (2.5 μM), the activity at 2.5 µM stood at 113%. Moreover, the activity at 5 µM in assay [1] (5 μM) amounted to 120%. Besides, the activity at 10 µM in assay [1] (10 μM) amounted to 129%. The activity at 20 µM in assay [1] (20 μM) amounted to 147%. For the same molecule, a half-maximal effect in the assay with Primary Neurons (Primary neuron) (EC50) was put at 4.96 µM.

Consider `O=C(N[C@@H]1CNC[C@H]1NC(=O)c1ccncc1)c1ccccc1` (stereo in doubt) [Example A20, N-[(3R,4R)-4-benzamidopyrrolidin-3-yl]pyridine-4-carboxamide], for which, in assay [1] (78 nM), the activity at 0.078 µM was 86.2%. Besides, in assay [1] (156 nM), the activity at 0.156 µM amounted to 81.5%. Besides, the activity at 0.312 µM in assay [1] (312 nM) came out at 77.7%. Also, in assay [1] (625 nM), the activity at 0.625 µM turned out to be 86.1%. For the same molecule, the activity at 1.25 µM in assay [1] (1.25 μM) worked out at 88.4%. Moreover, the activity at 2.5 µM in assay [1] (2.5 μM) turned out to be 90.2%. Further, in assay [1] (5 μM), the activity at 5 µM was determined as 90.7%. Further, the activity at 10 µM in assay [1] (10 μM) turned out to be 93.8%. The activity at 20 µM in assay [1] (20 μM) worked out at 103%. In the assay on Primary Neurons (Primary neuron), it took 9.49 µM to reach a half-maximal effect (EC50).

As for `COc1ccc(O)c(C(=O)c2ccc(C(=O)NC3CNC[C@H]3NC(=O)c3ccncc3)cc2)c1F` (stereo in doubt) [Example A32, N-[(3R,4S)-4-[4-(2-fluoro-6-hydroxy-3-methoxybenzoyl)benzamido]pyrrolidin-3-yl]pyridine-4-carboxamide], the “neurite growth length (% NTL)” value in assay [1] (78 nM) is given as 98.72 % NTL; in assay [1] (156 nM), 86.89 % NTL; in assay [1] (312 nM), 88.20 % NTL; in assay [1] (625 nM), 84.61 % NTL; in assay [1] (1.25 μM), 81.36 % NTL; in assay [1] (2.5 μM), 90.59 % NTL. The results for the “neurite growth length (% NTL)” value in assay [1] (5 μM), in assay [1] (10 μM) and in assay [1] (20 μM) were 88.24 % NTL, 82.90 % NTL and 86.59 % NTL, respectively. Further, in the assay on Primary Neurons, the EC50 is over 20 µM.

On to `COc1ccc(O)c(C(=O)c2ccc(C(=O)N[C@H]3CNC[C@@H]3NC(=O)c3ccncc3)cc2)c1F` (stereo in doubt) [Example A34, N-[(3S,4S)-4-[4-(2-fluoro-6-hydroxy-3-methoxybenzoyl)benzamido]pyrrolidin-3-yl]pyridine-4-carboxamide], for which the “neurite growth length (% NTL)” value is reported as 102.90 % NTL in assay [1] (78 nM); 102.77 % NTL in assay [1] (156 nM); 92.06 % NTL in assay [1] (312 nM); 92.27 % NTL in assay [1] (625 nM); 95.84 % NTL in assay [1] (1.25 μM); 105.94 % NTL in assay [1] (2.5 μM). For the same molecule, the “neurite growth length (% NTL)” value in assay [1] (5 μM) is 110.06 % NTL; in assay [1] (10 μM), 118.29 % NTL; in assay [1] (20 μM), 130.91 % NTL. For the same molecule, a half-maximal response in the assay with Primary Neurons (EC50) required 13 µM.

For the molecule `CCOc1ccc(O)c(C(=O)c2ccc(C(=O)N[C@@H]3CNC[C@H]3NC(=O)c3ccncc3)cc2)c1` [Example A90, N-((3R,4R)-4-(4-(5-ethoxy-2-hydroxybenzoyl)benzamido)pyrrolidin-3-yl)isonicotinamide], in the assay on Primary Neurons (Primary neuron), the EC50 amounted to 1.79 µM.

For the molecule `O=C(N[C@@H]1CNC[C@H]1NC(=O)c1ccc(C(=O)c2cc(F)ccc2O)cc1)c1ccncc1` [Example A91, N-((3R,4R)-4-(4-(5-fluoro-2-hydroxybenzoyl)benzamido)pyrrolidin-3-yl)isonicotinamide], the EC50 in the assay with Primary Neurons (Primary neuron) is 3.41 µM.

In the assay with Primary Neurons (Primary neuron), `O=C(N[C@@H]1CNC[C@H]1NC(=O)c1ccc(C(=O)c2cc(-c3ccccc3)ccc2O)cc1)c1ccncc1` [Example A93, N-((3R,4R)-4-(4-(4-hydroxy-[1,1′-biphenyl]-3-carbonyl)benzamido)pyrrolidin-3-yl)isonicotinamide] came in with an EC50 of 13.3 µM.

`COc1ccc(O)c(C(=O)c2ccc(C(=O)N[C@@H]3CCCNC[C@H]3NC(=O)c3ccncc3)cc2)c1F` [Example A94, N-((3R,4R)-4-(4-(2-fluoro-6-hydroxy-3-methoxybenzoyl)benzamido)azepan-3-yl)isonicotinamide] showed an EC50 in the assay on Primary Neurons (Primary neuron) of 0.813 µM. This EC50 is about 16-fold lower than that of the molecule before.

Molecule `CCc1ccc(O)c(C(=O)c2ccc(C(=O)N[C@@H]3CNC[C@H]3NC(=O)c3ccncc3)cc2)c1` [Example A95, N-((3R,4R)-4-(4-(5-ethyl-2-hydroxybenzoyl)benzamido)pyrrolidin-3-yl)isonicotinamide] gave an EC50 in the assay with Primary Neurons (Primary neuron) of 9.77 µM.

For the molecule `O=C(N[C@@H]1CNC[C@H]1NC(=O)c1ccc(C(=O)c2cc(OC(F)(F)F)ccc2O)cc1)c1ccncc1` [Example A96, N-((3R,4R)-4-(4-(2-hydroxy-5-(trifluoromethoxy)benzoyl)benzamido)pyrrolidin-3-yl)isonicotinamide], the EC50 in the assay with Primary Neurons (Primary neuron) was determined as 1.45 µM.

For the molecule `O=C(N[C@@H]1CNC[C@H]1NC(=O)c1ccc(C(=O)c2cc(OCc3ccccc3)ccc2O)cc1)c1ccncc1` [Example A97, N-((3R,4R)-4-(4-(5-(benzyloxy)-2-hydroxybenzoyl)benzamido)pyrrolidin-3-yl)isonicotinamide], a half-maximal response with Primary Neurons (Primary neuron) (EC50) required 11.3 µM.

In turn, `CC(C)(C)Oc1ccc(O)c(C(=O)c2ccc(C(=O)N[C@@H]3CNC[C@H]3NC(=O)c3ccncc3)cc2)c1` [Example A98, N-((3R,4R)-4-(4-(5-(tert-butoxy)-2-hydroxybenzoyl)benzamido)pyrrolidin-3-yl)isonicotinamide] yielded an EC50 with Primary Neurons (Primary neuron) of 9.97 µM.

In turn, `O=C(N[C@@H]1CNC[C@H]1NC(=O)c1ccc(C(=O)c2cc(C(F)(F)F)ccc2O)cc1)c1ccncc1` [Example A99, N-((3R,4R)-4-(4-(2-hydroxy-5-(trifluoromethyl)benzoyl)benzamido)pyrrolidin-3-yl)isonicotinamide] came in with an EC50 in the assay with Primary Neurons (Primary neuron) of 2.36 µM.
